Reference: patent US20250171423A1, “PHARMACEUTICAL COMPOUNDS FOR THE TREATMENT OF COMPLEMENT MEDIATED DISORDERS” (Achillion Pharmaceuticals, Inc., priority 2020, published 2025)

Each compound was assayed against T1, Human complement C1s enzyme (Homo sapiens, UniProt P09871) (assay: Human C1s Enzyme Assay). Settings: human C1s 1.16 nM, 5 min preincubation, substrate Z-L-Lys-SBzl 100 μM, A405; read-out: C1s Protease Activity.
T1 construct: purified from human serum, Complement Technology, Inc; purchased Complement Technology, Inc; host or cells: human serum
T1 sequence (P09871 438-688 limits assumed): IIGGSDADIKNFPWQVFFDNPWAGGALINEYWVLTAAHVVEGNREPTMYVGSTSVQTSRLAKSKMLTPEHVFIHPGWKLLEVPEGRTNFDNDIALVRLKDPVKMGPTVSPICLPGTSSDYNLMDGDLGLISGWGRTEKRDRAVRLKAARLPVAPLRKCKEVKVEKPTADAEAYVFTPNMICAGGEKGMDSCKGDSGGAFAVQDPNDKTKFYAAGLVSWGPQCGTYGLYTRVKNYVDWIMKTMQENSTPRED
T1 sequence (P09871 16-437 partner limits assumed): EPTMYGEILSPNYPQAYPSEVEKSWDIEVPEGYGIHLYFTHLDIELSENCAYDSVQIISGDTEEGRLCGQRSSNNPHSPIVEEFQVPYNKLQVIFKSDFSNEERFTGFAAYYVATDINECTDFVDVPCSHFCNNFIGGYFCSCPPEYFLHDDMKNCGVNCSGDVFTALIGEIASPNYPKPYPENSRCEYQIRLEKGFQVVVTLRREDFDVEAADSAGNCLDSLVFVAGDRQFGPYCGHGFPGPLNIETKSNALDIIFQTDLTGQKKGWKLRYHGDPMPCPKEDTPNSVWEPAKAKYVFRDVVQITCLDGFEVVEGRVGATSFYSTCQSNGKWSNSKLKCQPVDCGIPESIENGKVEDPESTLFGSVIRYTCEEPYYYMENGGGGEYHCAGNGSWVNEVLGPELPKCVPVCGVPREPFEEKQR
Type: biochemical
Method: The assay of Example 3 was used to determine the IC50's of the compounds. Other standard complement assays are also available.
Example 3. Human C1s Enzyme Assay
Human complement C1s enzyme (purified from human serum, Complement Technology, Inc.) at 1.16 nM final concentration was incubated with test compound at various concentrations for 5 min at room temperature in 50 mM Tris, 1 M NaCl, pH 7.5. A synthetic substrate Z-L-Lys-SBzl and DTNB (Ellman's reagent) were added to final concentrations of 100 μM each. Absorbance at 405 nm (A405) was recorded at 30 second intervals for 30 min using a microplate spectrophotometer. IC50 values were calculated by nonlinear regression of complement C1s reaction rates as a function of test compound concentration.

Row | SMILES | IC50 [µM]
1 | C[C@@]12C[C@@H]1N(C(=O)CNC(=O)CCCOc1ccc(C(=O)O)cc1)[C@H](C(=O)NCc1cc(C(=N)N)cs1)C2 [Compound 80, 4-(4-((2-((1S,3S,5S)-3-(((4-carbamimidoylthiophen-2-yl)methyl)carbamoyl)-5-methyl-2-azabicyclo[3.1.0]hexan-2-yl)-2-oxoethyl)amino)-4-oxobutoxy)benzoic acid] | 0.1 to 1
2 | COC(=O)C(NC(=O)[C@@H]1C[C@@H](OC(F)F)CN1C(=O)CNC(=O)c1ccc(Oc2ccccc2)cc1)c1cc(C(=N)N)cs1 (stereo partly drawn) [Compound 189, methyl 2-(4-carbamimidoylthiophen-2-yl)-2-((2S,4R)-4-(difluoromethoxy)-1-((4-phenoxybenzoyl)glycyl)pyrrolidine-2-carboxamido)acetate] | > 1
3 | CC(=O)NCCOC[C@@]12C[C@@H]1N(C(=O)CNC(=O)c1ccc(Oc3ccccc3)cc1)[C@H](C(=O)NCc1cc(C(=N)N)cs1)C2 [Compound 74, (1S,3S,5R)-5-((2-acetamidoethoxy)methyl)-N-((4-carbamimidoylthiophen-2-yl)methyl)-2-((4-phenoxybenzoyl)glycyl)-2-azabicyclo[3.1.0]hexane-3-carboxamide] | < 0.1
4 | CO/C(=N/C#N)c1csc(CNC(=O)[C@@H]2C[C@]3(C)C[C@@H]3N2C(=O)CNC(=O)c2ccc(Oc3ccccc3)cc2)c1 [Compound 31, methyl (E)-N-cyano-5-(((1S,3S,5S)-5-methyl-2-((4-phenoxybenzoyl)glycyl)-2-azabicyclo[3.1.0]hexane-3-carboxamido)methyl)thiophene-3-carbimidate] | > 1
5 | COC[C@@]1(F)C[C@@H](C(=O)N[C@H](C)c2cc(C(=N)N)cs2)N(C(=O)CNC(=O)c2ccc(C(=O)c3ccccc3)cc2)C1 [Compound 218, (2S,4R)-1-((4-benzoylbenzoyl)glycyl)-N-((R)-1-(4-carbamimidoylthiophen-2-yl)ethyl)-4-fluoro-4-(methoxymethyl)pyrrolidine-2-carboxamide] | < 0.1
6 | C[C@@]12C[C@@H]1N(C(=O)CNC(=O)c1ccc(Oc3ccccc3)cc1)[C@H](C(=O)NCc1cc(C(N)=O)cs1)C2 [Compound 8, (1S,3S,5S)-N-((4-carbamoylthiophen-2-yl)methyl)-5-methyl-2-((4-phenoxybenzoyl)-glycyl)-2-azabicyclo[3.1.0]hexane-3-carboxamide] | > 1
7 | N=C(N)c1csc(CNC(=O)[C@@H]2C[C@@]3(CCO3)CN2C(=O)CNC(=O)c2ccc(Oc3ccccc3)cc2)c1 [Compound 194, (4R,7S)-N-((4-carbamimidoylthiophen-2-yl)methyl)-6-((4-phenoxybenzoyl)glycyl)-1-oxa-6-azaspiro[3.4]octane-7-carboxamide] | < 0.1
8 | C[C@@H](NC(=O)[C@@H]1C[C@@H](OC(F)F)CN1C(=O)CNC(=O)CCCOc1ccccc1)c1cc(C(=N)N)cs1 [Compound 123, (2S,4R)-N-((R)-1-(4-carbamimidoylthiophen-2-yl)ethyl)-4-(difluoromethoxy)-1-((4-phenoxybutanoyl)glycyl)pyrrolidine-2-carboxamide] | < 0.1
9 | CC(C)C[C@@H](NC(=O)[C@@H]1C[C@@H](OC(F)F)CN1C(=O)CNC(=O)c1ccc(Oc2ccccc2)cc1)c1cc(C(=N)N)cs1 [Compound 191, (2S,4R)-N-((R)-1-(4-carbamimidoylthiophen-2-yl)-3-methylbutyl)-4-(difluoromethoxy)-1-((4-phenoxybenzoyl)glycyl)pyrrolidine-2-carboxamide] | > 1
10 | COC[C@@]1(F)C[C@@H](C(=O)N[C@H](C)c2cc(C(=N)N)cs2)N(C(=O)CNC(=O)c2ccc(Oc3ccccc3)cc2)C1 [Compound 196, (2S,4R)-N-((R)-1-(4-carbamimidoylthiophen-2-yl)ethyl)-4-fluoro-4-(methoxymethyl)-1-((4-phenoxybenzoyl)glycyl)pyrrolidine-2-carboxamide] | < 0.1
11 | CC(=O)O/N=C(\N)c1csc(CNC(=O)[C@@H]2C[C@]3(C)C[C@@H]3N2C(=O)CN(C[C@H](O)[C@H](O)[C@@H](O)[C@H](C)O)C(=O)OC(C)(C)C)c1 [Compound 25, tert-butyl (2-((1S,3S,5S)-3-(((4-(N-acetoxycarbamimidoyl)thiophen-2-yl)methyl)-carbamoyl)-5-methyl-2-azabicyclo[3.1.0]hexan-2-yl)-2-oxoethyl)((2S,3S,4S,5S)-2,3,4,5-tetrahydroxyhexyl)carbamate] | > 1
12 | COC(=N)c1csc(CNC(=O)[C@@H]2C[C@]3(C)C[C@@H]3N2C(=O)CNC(=O)c2ccc(Oc3ccccc3)cc2)c1 [Compound 32, methyl 5-(((1S,3S,5S)-5-methyl-2-((4-phenoxybenzoyl)glycyl)-2-azabicyclo[3.1.0]-hexane-3-carboxamido)methyl)thiophene-3-carbimidate] | 0.1 to 1
13 | C[C@@]12C[C@@H]1N(C(=O)CNC(=O)c1ccc(Oc3ccccc3)cc1)[C@H](C(=O)NCc1cc(C(=N)N)c(F)s1)C2 [Compound 239, (1S,3S,5S)-N-((4-carbamimidoyl-5-fluorothiophen-2-yl)methyl)-5-methyl-2-((4-phenoxybenzoyl)glycyl)-2-azabicyclo[3.1.0]hexane-3-carboxamide] | < 0.1

Now from value to compound:

Row | IC50 [µM] | SMILES
14 | < 0.1 | N=C(N)c1csc(CNC(=O)[C@@H]2C[C@@]3(CN2C(=O)CNC(=O)CCCOc2ccccc2)CC3(F)F)c1 [Compound 56, (3S,6S)-N-((4-carbamimidoylthiophen-2-yl)methyl)-1,1-difluoro-5-((4-phenoxy-butanoyl)glycyl)-5-azaspiro[2.4]heptane-6-carboxamide]
15 | < 0.1 | C[C@@H](NC(=O)[C@@H]1C[C@@H](c2ccccc2)CN1C(=O)CNC(=O)CCCOc1ccccc1)c1cc(C(=N)N)cs1 [Compound 158, (2S,4S)-N-((R)-1-(4-carbamimidoylthiophen-2-yl)ethyl)-1-((4-phenoxybutanoyl)glycyl)-4-phenylpyrrolidine-2-carboxamide]
16 | < 0.1 | C[C@@H](NC(=O)[C@@H]1C[C@H](C2CCCCC2)CN1C(=O)CNC(=O)CCCOc1ccccc1)c1cc(C(=N)N)cs1 [Compound 243, (2S,4R)-N-((R)-1-(4-carbamimidoylthiophen-2-yl)ethyl)-4-cyclohexyl-1-((4-phenoxybutanoyl)glycyl)pyrrolidine-2-carboxamide]
17 | < 0.1 | Cc1cccc([C@H]2C[C@@H](C(=O)NCc3cc(C(=N)N)cs3)N(C(=O)CNC(=O)CCCOc3ccccc3)C2)c1 [Compound 170, (2S,4R)-N-((4-carbamimidoylthiophen-2-yl)methyl)-1-((4-phenoxybutanoyl)glycyl)-4-(m-tolyl)pyrrolidine-2-carboxamide]
18 | < 0.1 | C[C@@H](NC(=O)[C@@H]1C[C@]2(C)C[C@@H]2N1C(=O)CNC(=O)c1ccc(Oc2ccccc2)cc1)c1cc(-c2ncc[nH]2)cs1 [Compound 240, (1S,3S,5S)-N-((R)-1-(4-(1H-imidazol-2-yl)thiophen-2-yl)ethyl)-5-methyl-2-((4-phenoxybenzoyl)glycyl)-2-azabicyclo[3.1.0]hexane-3-carboxamide]
19 | < 0.1 | C[C@@H](NC(=O)[C@@H]1C[C@](F)(COCCCCCC(=O)O)CN1C(=O)CNC(=O)CCCOc1ccccc1)c1cc(C(=N)N)cs1 [Compound 234, 6-(((3R,5S)-5-(((R)-1-(4-carbamimidoylthiophen-2-yl)ethyl)carbamoyl)-3-fluoro-1-((4-phenoxybutanoyl)glycyl)pyrrolidin-3-yl)methoxy)hexanoic acid]
20 | < 0.1 | N=C(N)c1csc(CNC(=O)[C@@H]2C[C@@H](OCC3CC3)CN2C(=O)CNC(=O)c2ccc(Oc3ccccc3)cc2)c1 [Compound 50, (2S,4R)-N-((4-carbamimidoylthiophen-2-yl)methyl)-4-(cyclopropylmethoxy)-1-((4-phenoxybenzoyl)glycyl)pyrrolidine-2-carboxamide]
21 | < 0.1 | COC[C@@]1(F)C[C@@H](C(=O)NCc2cc(C(=N)N)cs2)N(C(=O)CNC(=O)CCCOc2ccccc2)C1 [Compound 72, (2S,4R)-N-((4-carbamimidoylthiophen-2-yl)methyl)-4-fluoro-4-(methoxymethyl)-1-((4-phenoxybutanoyl)glycyl)pyrrolidine-2-carboxamide]
22 | < 0.1 | C[C@@]12C[C@@H]1N(C(=O)CNC(=O)CCCOc1ccccc1)[C@H](C(=O)NCc1cc(C(=N)N)cs1)C2 [Compound 44, (1S,3S,5S)-N-((4-carbamimidoylthiophen-2-yl)methyl)-5-methyl-2-((4-phenoxy-butanoyl)glycyl)-2-azabicyclo[3.1.0]hexane-3-carboxamide]
